Test system: Female Wistar rats
Experiment: Activity test in ovariectomized, right sciatic nerve amputated rats: femur bone density and serum calcium after 6 weeks of oral administration
Assay type: in vivo
Conditions: for Serum calcium concentration / Bone density: 5 days per week for 6 weeks; for Serum calcium concentration: blood drawn the day after final administration; for Bone density: right femur, ash weight/volume, ovariectomy and sciatic nerve amputation; for increase in bone density / increase in serum calcium concentration: in words, compared with known 1α-hydroxy vitamin D₃, summary of Table 1
Excerpt: Seventy two rats were subjected to bilateral ovariectomy and right sciatic nerve amputation. Rats were divided into 9 groups of eight animals each. Another group of eight rats was subjected to sham operation. Over a period of 6 weeks after operation, each group was orally administered either 1α-hdyroxy vitamin D₃, 1α-hydroxy vitamin D₇ or 1α-hydroxy vitamin D₄ dissolved in 0.5% ethanol/porpyleneglycol (vehicle) at the frequency of 5 days per week. The sham operated group and control group were orally administered the vehicle alone. The next day after final administration, rats were killed, blood was drawn from abdominal cave and right femur was extracted. The bone volume of femur was measured in accordance with Archimedes' principle. After heat treatment at 700°C for 24 hrs, the weight of bone ash was measured. From these measured values, the bone density (ash weight/volume) of each femur was calculated. Serum calcium concentration was determined according to usual method.

Row | Serum calcium concentration (0.02 µg/kg/day oral) [mg/dL] | Serum calcium concentration (0.1 µg/kg/day oral) [mg/dL] | SMILES | Serum calcium concentration (0.5 µg/kg/day oral) [mg/dL] | Bone density (0.5 µg/kg/day oral) [mg/mm^3] | Serum calcium concentration (2.5 µg/kg/day oral) [mg/dL] | Bone density (2.5 µg/kg/day oral) [mg/mm^3] | increase in bone density | increase in serum calcium concentration | Serum calcium concentration (12.5 µg/kg/day oral) [mg/dL] | Bone density (12.5 µg/kg/day oral) [mg/mm^3] | Bone density (0.02 µg/kg/day oral) [mg/mm^3] | Bone density (0.1 µg/kg/day oral) [mg/mm^3]
1 |  |  | C=C1/C(=C\C=C2/CCC[C@]3(C)[C@@H]([C@H](C)CC[C@H](C)C(C)C)CC[C@@H]23)C[C@@H](O)C[C@@H]1O [1α-OH-D4, 1α-hydroxy vitamin D₄] | 10.5 ± 0.2 | 0.576±0.006 | 11.0 ± 0.4 | 0.583 ± 0.003 | much greater increase in bone density | lesser increase in serum calcium concentration |  |  |  | 
2 |  |  | C=C1/C(=C\C=C2/CCC[C@]3(C)[C@@H]([C@H](C)CC[C@@H](C)C(C)C)CC[C@@H]23)C[C@@H](O)C[C@@H]1O [1α-OH-D7, 1α-hydroxy vitamin D₇] | 10.5 ± 0.1 | 0.581±0.004 | 10.7 ± 0.3 | 0.585±0.007 | much greater increase in bone density | lesser increase in serum calcium concentration | 10.9 ± 0.5 | 0.589±0.004 |  | 
3 | 10.8 ± 0.1 | 11.0 ± 0.1 | C=C1/C(=C\C=C2/CCC[C@]3(C)[C@@H]([C@H](C)CCCC(C)C)CC[C@@H]23)C[C@@H](O)C[C@@H]1O [1α-OH-D3, 1α-hydroxy vitamin D₃, reference compound] | 12.4 ± 0.2 | 0.560±0.006 |  |  |  |  |  |  | 0.556±0.005 | 0.545±0.007
